Laboratory results: patent US20150216182A1, “COMPOSITIONS AND METHODS OF THE ATTRACTION AND REPULSION OF INSECTS” (Olfactor Laboratories, Inc., priority 2012, published 2015)
Structures can show the parent of a compound that is named as a salt.

How the values were obtained:
female mosquitoes [1] = conditions: single compound, female mosquitoes, two hours; for % mortality with 0.2 mg/ml: 0.2 mg/ml on filter paper; for % mortality with 2 mg/ml: 2 mg/ml on filter paper
[2] = system: bed bugs (Cimex lectularius); assay: bed bug repellency assay; assay type: in vivo; conditions: compound or combination on filter paper harborage, ten bed bugs
Description: Compounds and combinations of compounds of the present invention were assayed for their ability to repel bed bugs (Cimex lectularius) using a bed bug repellency assay. This assay takes advantage of the bed bug's natural tendency to seek harborage. Two petri dishes were obtained and the inner areas of each were sanded down (leaving the perimeter smooth.) Talc was applied on the perimeter and on the inside walls of the petri dishes with a small paint brush to prevent bed bugs from escaping. A cut off top portion of a solo bathroom cup was placed upside down in the center of one petri dish. A large plastic secondary container was gathered and a paper towel was laid down inside the bottom. The petri dish was then placed inside and ten bed bugs were placed inside the cut off portion of the solo cup. Next, two pieces of filter paper were cut down the middle to yield 4 equally sized halves. 3 pieces were placed inside a glass dish ([…]) and the remaining piece was placed in a separate dish. All 4 pieces were folded down the middle to create a “tent” or “harborage” when laid such that the folded crease faced up. 100 microliters of isopropyl alcohol was pipetted into 3 pieces of filter paper (all housed in the first glass dish.) In a separate 4 ml vial, 90 microliters of isopropyl alcohol was combined and vortexed with 10 microliters of the compound or compound combination being tested. 100 microliters of this solution [comprising a total of 100 mg of compound(s)] was pipetted onto the filter paper in the separate dish. All filter papers were then allowed to dry. Once dry, experiments were conducted first with two filter paper halves comprising only the isopropyl alcohol (control experiment) and then with the remaining filter paper halves [one with only isopropyl alcohol and one comprising the test compound(s).] Filter paper halves were placed on opposing sides of experimental petri dishes and bed bugs were allowed to move freely within the dishes for 5 minutes. Movement of bed bugs beneath each filter paper tent was recorded. […] In the Table, “Rep” refers to repellency and “Cmpd” refers to compound.

larvae = assay: larvicidal activity assay; assay type: in vivo; conditions: 24 hour exposure, dead larvae / total larvae; for % Lethality at 100 ppm / pest or weed control at 100 ppm: 100 ppm compound; for % Lethality with 0.25% compound conc. / pest or weed control at 0.25 %: 0.25% compound; for pest or weed control at 0.25 %: read-out: % Lethality with 0.25% compound conc.; for pest or weed control at 100 ppm: read-out: % Lethality at 100 ppm
Description: A 6-well plate (Corning Life Sciences, Tewksbury, Mass.) is used to test a compound's larvicidal activity. […] After a 24 hour exposure, the number of dead larvae are counted and recorded.
The results are presented in Table 17 as % lethality (the number of dead larvae divided by the total number of larvae).

female mosquitoes [3] = assay: whole plant or invertebrate; conditions: 2 h; for mortality at 200 µg/mL: read-out: % mortality with 0.2 mg/ml; for mortality at 2000 µg/mL: read-out: % mortality with 2 mg/ml
cpB and cpC neurons = assay: extracellular single-sensillum electrophysiology: beta activators; assay type: in vivo, Aedes aegypti; conditions: for Class A (beta activator, individual component): Table 15, single component alone; for Class A (beta activator, individual component) / Class (beta activator, individual component): Beta Actv; for beta activator (stimulates cpB and cpC neuronal activity): single compound
Source text: Three types of CO2-responsive neurons reside in the maxillary palp of mosquitoes. These include cpA, cpB and cpC neurons. […] These neurons produce spikes with much lower amplitude than those produced by cpA neurons. Although the activity from cpB and cpC neurons cannot easily be distinguished from one another, their collective activity can be distinguished from cpA neurons due to their characteristic spikes. This is useful in the identification of compounds and compositions that only activate or inhibit cpB and cpC neurons or compounds and compositions that activate or inhibit both.
Carbon dioxide receptor neurons are housed within the basiconic sensilla of the mosquito maxillary palp. While activity from cpA neurons produces the largest amplitude spike, cpB and cpC neurons present in this region are also responsive to skin odors. Activity from these neurons can also be detected through the electrophysiological methods described in Example 1.
Although the activity from cpB and cpC neurons cannot easily be distinguished from one another, their collective activity can be distinguished from cpA neurons due to their production of spikes with much lower amplitude than those produced by cpA neurons.

cpA neurons [4] = assay: extracellular single-sensillum electrophysiology: inhibition of CO2-responsive (cpA) neuronal activity; conditions: for Class: Table 10, single compounds, percent reduction in cpA activity compared to baseline; for Class (inhibitor class of the individual component): Inh = inhibitor
cpA neurons [5] = assay: extracellular single-sensillum electrophysiology: activation of cpA neuronal activity; conditions: for Class: Table 6, single compounds, increase over baseline cpA neuronal activity; for Comp A Class / Comp B Class: Table 9; for Comp A Class: component A tested individually; for Comp B Class: component B tested individually; for Class B (activator class of the individual component): Table 15, single component alone, Mod Actv
[6] = Table 13, single component alone
[7] = Table 16, single component alone

| Molecule | % mortality with 0.2 mg/ml (female mosquitoes [1]) [%] | % mortality with 2 mg/ml (female mosquitoes [1]) [%] | % Rep (bed bug repellency) [2] [%] | % Lethality with 0.25% compound conc. (larvae) [% lethal] | % Lethality at 100 ppm (larvae) [% lethal] | mortality at 200 µg/mL (female mosquitoes [3]) [%] | mortality at 2000 µg/mL (female mosquitoes [3]) [%] | pest or weed control at 0.25 % (larvae) [%] | pest or weed control at 100 ppm (larvae) [%] | beta activator (stimulates cpB and cpC neuronal activity) (cpB and cpC neurons) | Class (cpA neurons [4]) | Class (cpA neurons [5]) | other results |
| --- | --- | --- | --- | --- | --- | --- | --- | --- | --- | --- | --- | --- | --- |
| CC1=C2CCC(C)CC2OC1=O (stereo not drawn) [OLI0111, Menthalactone] | 0 | 100 | 13 | 100 | 33 |  |  |  |  |  |  |  |  |
| CC/C=C\CCOC=O [OLI0096, cis-3-hexenyl formate] |  |  | 6 |  |  | 0 | 0 | 30 | 0 | beta activators |  |  | Class A (beta activator, individual component) (cpB and cpC neurons): Beta |
| CC/C=C\CCCCO [OLI0084, cis-5-octen-1-ol] |  |  | 82 |  |  | 0 | 95 | 100 | 0 | beta activator | Mild Inhibitor (mild inhibitors (reducing activity by 20-40%)) |  | Class (inhibitor class of the individual component) (cpA neurons [4]; [6]): Mild; Class (inhibitor class of the individual component) (cpA neurons [4]; [7]): Mild; Class (beta activator, individual component) (cpB and cpC neurons; [7]): Beta |
| furfurylpentenoate [OLI0088] |  |  |  |  |  |  |  |  |  |  | Mild Inhibitor (mild inhibitors (reducing activity by 20-40%)) |  | Class (inhibitor class of the individual component) (cpA neurons [4]; [7]): Mod; Class (beta activator, individual component) (cpB and cpC neurons; [7]): Beta |
| C/C=C(\C)C=O [OLI0013, trans-2-methyl-2-butenal] | 0 | 0 |  | 72 | 0 |  |  |  |  |  |  | Strong Activator (strong activators yield an increase in activity that is >60 spk/sec over baseline neuronal activity) |  |
| CCCC1CCC(=O)O1 (stereo not drawn) [OLI0024, gamma-heptalactone] | 0 | 0 | 71 | 100 | 0 |  |  |  |  |  |  | Moderate Activator (Moderate activators yield an increase in neuronal activity that is between 40 and 60 spk/sec over baseline neuronal activity) | Comp A Class (cpA neurons [5]): Mod; Comp B Class (cpA neurons [5]): Mod; Class B (activator class of the individual component) (cpA neurons [5]): Mod |
| COC(/C=C/c1ccccc1)OC [OLI0106, cinnamic aldehyde dimethyl acetal] | 0 | 100 | 90 | 100 | 10 |  |  |  |  |  |  |  |  |
| O=CCCc1ccccc1 [OLI0029, phenylpropylaldehyde] | 0 | 15 | 100 | 100 | 0 |  |  |  |  |  |  | Moderate Activator (Moderate activators yield an increase in neuronal activity that is between 40 and 60 spk/sec over baseline neuronal activity) | Comp A Class (cpA neurons [5]): Mod; Comp B Class (cpA neurons [5]): Mod; Class B (activator class of the individual component) (cpA neurons [5]): Mod |
| CC(=O)/C=C/C=C(C)C [OLI0059] | 0 | 0 | 87 | 100 | 58 |  |  |  |  |  |  | Mild Activator (mild activators yield an increase in neuronal activity that is between 20 and 40 spk/sec over baseline neuronal activity) |  |
| methoxy cinnamic aldehyde [OLI0112] | 0 | 100 | 23 | 100 | 0 |  |  |  |  |  |  |  |  |
| CC/C=C/CC(=O)OC [OLI0100, methyl (E)-hex-3-enoate] |  |  | 17 |  |  | 0 | 0 | 100 | 0 | beta activators |  |  | Comp B Class (cpA neurons [5]): Beta; Class (beta activator, individual component) (cpB and cpC neurons; [6]): Beta; Class A (beta activator, individual component) (cpB and cpC neurons): Beta; Class (beta activator, individual component) (cpB and cpC neurons; [7]): Beta |
| C/C=C(\C)C(=O)OC(CC)CCCCC (stereo not drawn) [OLI0079, 1-ethylhexyl tiglate] |  |  | 49 |  |  | 0 | 15 | 100 | 0 | beta activators | Mild Inhibitor (mild inhibitors (reducing activity by 20-40%)) |  | inhibitor class of single compound (cpA neurons [4]; single compound): mild cpA inhibitors |
| CCCCCC(=O)CC [OLI0075, octanone-3] | 0 | 0 |  | 100 | 50 |  |  |  |  |  | Moderate Inhibitor (moderate inhibitors (reducing activity by 40-60%)) |  | Class (inhibitor class of the individual component) (cpA neurons [4]; [6]): Mod |
| CC(C)CCOC=O [OLI0098, isoamyl formate] |  |  |  |  |  |  |  |  |  | beta activators |  |  | Class A (beta activator, individual component) (cpB and cpC neurons): Beta |
| N#C/C=C/c1ccccc1 [OLI0020, cinnamyl nitrile] | 0 | 100 | 56 | 100 | 100 |  |  |  |  |  |  | Moderate Activator (Moderate activators yield an increase in neuronal activity that is between 40 and 60 spk/sec over baseline neuronal activity) | Comp B Class (cpA neurons [5]): Mod; Class B (activator class of the individual component) (cpA neurons [5]): Mod |
| CCCCC(=O)OCc1ccco1 [OLI0074, furfurylpentanoate] |  |  | 100 |  |  | 0 | 0 | 100 | 0 | beta activator | Moderate Inhibitor (moderate inhibitors (reducing activity by 40-60%)) |  | Class (inhibitor class of the individual component) (cpA neurons [4]; [6]): Mod; Class (inhibitor class of the individual component) (cpA neurons [4]; [7]): Mod; Class (beta activator, individual component) (cpB and cpC neurons; [7]): Beta |
